Measured values: Sander's compilation of Henry's law constants (doi:10.1016/0045-6535(85)90029-3)

Assay: Henry solubility constant Hcp at 298.15 K (mol/(m3 Pa))
Conditions: reference: Oliver (1985)

SMILES | Henry solubility constant Hcp
ClC(Cl)=C(Cl)C(Cl)=C(Cl)Cl [hexachlorobutadiene] | 0.0023
Clc1cc(Cl)c(-c2cc(Cl)c(Cl)cc2Cl)cc1Cl [2,2',4,4',5,5'-hexachlorobiphenyl] | 0.16
ClC(Cl)=C(Cl)c1c(Cl)c(Cl)c(Cl)c(Cl)c1Cl [octachlorostyrene] | 0.076
Clc1cccc(Cl)c1 [1,3-dichlorobenzene] | 0.0055
Cc1cc(Cl)c(Cl)cc1Cl [2,4,5-trichloromethylbenzene] | 0.0066
Clc1ccc(Cl)c(-c2ccccc2Cl)c1 [2,2',5-trichlorobiphenyl] | 0.049
Clc1cccc(Cl)c1Cl [1,2,3-trichlorobenzene] | 0.011
Clc1ccc(Cl)c(-c2cc(Cl)c(Cl)cc2Cl)c1 [2,2',4,5,5'-pentachlorobiphenyl] | 0.14
Clc1cc(Cl)cc(Cl)c1 [1,3,5-trichlorobenzene] | 0.0052
Cc1c(Cl)c(Cl)c(Cl)c(Cl)c1Cl [pentachloromethylbenzene] | 0.013
Clc1cccc(-c2cccc(Cl)c2Cl)c1Cl [2,2',3,3'-tetrachlorobiphenyl] | 0.082
Cc1c(Cl)ccc(Cl)c1Cl [2,3,6-trichloromethylbenzene] | 0.0066
Clc1cc(Cl)c(Cl)cc1Cl [1,2,4,5-tetrachlorobenzene] | 0.0099
Clc1ccc(Cl)c(-c2cc(Cl)ccc2Cl)c1 [2,2',5,5'-tetrachlorobiphenyl] | 0.082
Clc1ccc(Cl)cc1 [1,4-dichlorobenzene] | 0.0066
